The record followed here is ChEMBL document CHEMBL5727813, “Inhibitors of lysine gingipain” (2020).

Broadly, the IC50 is the concentration that gives 50% inhibition. The low end stands for inhibition by little substance, the high end for a need for much substance.

A short description of the assay: Inhibition of Lysine Gingipain: The capacities of compounds of the present invention to inhibit the activity of lysine gingipain were measured in a fluorogenic assay similar to those described in Barret Biochemical Journal. 1980, 187(3), 909. The specific assay conditions were as follows. Buffer: pH=7.5, 100 mM Tris-HCl, 75 mM NaCl, 2.5 mM CaCl2, 10 mM cysteine, 1% DMSO after all additions. Protein: 0.1 nM Kgp, isolated from culture of Porphyromonas gingivalis, as described in Pike et al. J. Biol. Chem. 1994, 269(1), 406, and Potempa and Nguyen. Current Protocols in Protein Scienc. 2007, 21.20.1-21.20.27. Fluorogenic substrate: 10 uM Z-His-Glu-Lys-MCA. Time=90 minutes. Temperature=37° C. Each compound: 10 concentrations, starting at either 100 uM or 100 nM, with lower concentrations generated by serial 3-fold dilutions. By testing a range of concentrations for each compound, the concentration required to inhibit the activity of lysine gingipain by 50% (the “IC50”) was determined. Under the described assay conditions, signal-to-noise was excellent, and Z factor was greater than 0.6.

For `NCCCC[C@H](NC(=O)C1CCCC1)C(=O)c1ccccn1`, the IC50 is more than 250 nM.
